Numbered stars: 1 amine (or outer) side, 2 acyl side, 3 side chain; on linkers, the order of the positions; unused ones are H or OH. Bridge positions count the residues as written; N and C are the ends. Square brackets hold non-standard residues; d marks the D form. Peptide text beside a SMILES is read from it. * marks the point of attachment. hPhe(3,5-F2-4-CF3) = N[C@@H](CCc1cc(F)c(C(F)(F)F)c(F)c1)C(=O)O; hPhe(3-Cl-4-CF3) = N[C@@H](CCc1ccc(C(F)(F)F)c(Cl)c1)C(=O)O; hPhe(3-F,4-CF3) = N[C@@H](CCc1ccc(C(F)(F)F)c(F)c1)C(=O)O; NEtPhe(4-CF3) = CCN[C@@H](Cc1ccc(C(F)(F)F)cc1)C(=O)O; NMePhe(4-CF3) = CN[C@@H](Cc1ccc(C(F)(F)F)cc1)C(=O)O; NEtPhe(4-Me) = CCN[C@@H](Cc1ccc(C)cc1)C(=O)O; NMePhe(4-Cl) = CN[C@@H](Cc1ccc(Cl)cc1)C(=O)O; NMePhe(4-F) = CN[C@@H](Cc1ccc(F)cc1)C(=O)O; NMedβ3hAla = C[C@H](CC(=O)[*:2])N(C)[*:1]; NMeGly(cPent) = CN[C@H](C(=O)O)C1CCCC1; Pro(4,4-F2) = O=C(O)[C@@H]1CC(F)(F)CN1; NMeAla(cPr) = CN[C@@H](CC1CC1)C(=O)O; NMeCha = CN[C@@H](CC1CCCCC1)C(=O)O; Hyp = O=C(O)[C@@H]1C[C@@H](O)CN1; NMeAhp(2) = CCCCC[C@H](NC)C(=O)O; NMeChg = CN[C@H](C(=O)O)C1CCCCC1; NMeI = CC[C@H](C)[C@H](NC)C(=O)O; NMeD = CN[C@@H](CC(=O)O)C(=O)O; NMeL = CN[C@@H](CC(C)C)C(=O)O; Oxazolidin(3-yl) = C1CN(*)CO1; Chg = N[C@H](C(=O)O)C1CCCCC1; dNMeAbu = CC[C@@H](NC)C(=O)O; NMeV = CN[C@H](C(=O)O)C(C)C; d(β3hA) = C[C@@H](N)CC(=O)O; Azetidin(1-yl) = C1CN(*)C1; NMeS = CN[C@@H](CO)C(=O)O; Morpholide = C1CN(*)CCO1; NMeA = CN[C@@H](C)C(=O)O; NMeAib = CNC(C)(C)C(=O)O; Piperidide = C1CCN(*)CC1; Pyrrolidide = C1CCN(*)C1; dNMeA = CN[C@H](C)C(=O)O; Ac5c = NC1(C(=O)O)CCCC1; Aze = O=C(O)[C@@H]1CCN1; Sar = CNCC(=O)O
What was measured:
[1] = tested on: Human pancreatic cancer cell line AsPC-1 (G12D mutation Kras); experiment: AsPC-1 cell growth inhibition (AsPC-1 CGI); format: cell-based; conditions: read-out: AsPC-1 cell growth inhibition, 50% growth inhibitory concentration (IC50 value); 96 hours, CellTiter-Glo, values classified in ranges
[2] = molecular target: protein-protein interaction between Kras and SOS1 (biotin-tagged human Kras loaded with GDP, His-tagged human SOS1) (Homo sapiens (Human), UniProt P01116, G12D); experiment: Protein-protein interaction inhibition between Kras and SOS1 (KrasG12D-SOS PPI) using AlphaScreen; format: biochemical; conditions: AlphaScreen; biotin-tagged human Kras loaded with GDP, His-tagged human SOS1; read-out: KRAS G12D-SOS PPI IC50;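 further: kras produced in E. coli, Ni-coupled donor beads and streptavidin acceptor beads, excitation 680 nm with emission detected at 520–620 nm via singlet oxygen transfer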

SMILES	IC50 [1] [nM]	IC50 [2] [nM]
CC[C@H](C)[C@@H]1NC(=O)[C@H](C)N(C)C(=O)C[C@@H](C(=O)N2CCCCC2)N(C)C(=O)[C@H](C(C)C)N(C)C(=O)C2(CCCC2)NC(=O)[C@@H]2CCCN2C(=O)[C@H](CCc2ccc(C(F)(F)F)c(Cl)c2)NC(=O)[C@@H](C)N(C)C(=O)[C@H](Cc2ccc(F)cc2)N(C)C(=O)[C@@H]2CCN2C(=O)[C@H](C)N(C)C1=O [Compound 1816] ([NMeA]I[NMeA][Aze][NMePhe(4-F)][dNMeA][hPhe(3-Cl-4-CF3)]P[Ac5c][NMeV][NMeD]-Piperidide; lactam N-11)	> 500	12
CC[C@H](C)[C@@H]1NC(=O)[C@H](CC(C)C)N(C)C(=O)C[C@@H](C(=O)N2CCCC2)N(C)C(=O)[C@H]([C@@H](C)CC)N(C)C(=O)C2(CCCC2)NC(=O)[C@@H]2CCCN2C(=O)[C@H](CCc2ccc(C(F)(F)F)c(Cl)c2)NC(=O)CN(C)C(=O)[C@H](Cc2ccc(C(F)(F)F)cc2)N(CC)C(=O)[C@@H]2CCN2C(=O)[C@H](C)N(C)C1=O [Compound 1319] ([NMeL]I[NMeA][Aze][NEtPhe(4-CF3)][Sar][hPhe(3-Cl-4-CF3)]P[Ac5c][NMeI][NMeD]-Pyrrolidide; lactam N-11)	≤ 20	0.82
CC[C@H](C)[C@@H]1NC(=O)[C@H](CC(C)C)N(C)C(=O)C[C@@H](C(=O)N2CCC2)N(C)C(=O)[C@H](C2CCCC2)N(C)C(=O)C2(CCCC2)NC(=O)[C@@H]2CCCN2C(=O)[C@H](CCc2cc(F)c(C(F)(F)F)c(F)c2)NC(=O)CN(C)C(=O)[C@H](CC2CCCCC2)N(C)C(=O)[C@@H]2CCN2C(=O)[C@H](C)N(C)C1=O [Compound 1070] ([NMeL]I[NMeA][Aze][NMeCha][Sar][hPhe(3,5-F2-4-CF3)]P[Ac5c][NMeGly(cPent)][NMeD]-{Azetidin(1-yl)}; lactam N-11)	≤ 20	0.91
CC[C@H](C)[C@@H]1NC(=O)[C@H](CC(C)C)N(C)C(=O)C[C@@H](C(=O)N2CCCCC2)N(C)C(=O)[C@H](C(C)C)N(C)C(=O)C2(CCCC2)NC(=O)[C@@H]2CCCN2C(=O)[C@H](CCc2ccc(C(F)(F)F)c(Cl)c2)NC(=O)CN(C)C(=O)[C@H](CC2CCCCC2)N(C)C(=O)[C@@H]2CCN2C(=O)[C@@H]2CCCN2C1=O [Compound 709] ([NMeL]IP[Aze][NMeCha][Sar][hPhe(3-Cl-4-CF3)]P[Ac5c][NMeV][NMeD]-Piperidide; lactam N-11)	> 500	41
CC[C@@H]1C(=O)NC2(CCCC2)C(=O)N(C)[C@@H](C2CCCCC2)C(=O)N(C)[C@H](C(=O)N2CCCCC2)CC(=O)N(C)[C@@H](CC(C)C)C(=O)N[C@@H]([C@@H](C)CC)C(=O)N(C)CC(=O)N(C)CC(=O)N(C)[C@@H](CC2CCCCC2)C(=O)N(C)CC(=O)N[C@@H](CCc2ccc(C(F)(F)F)c(Cl)c2)C(=O)N1C [Compound 1435] ([NMeL]I[Sar][Sar][NMeCha][Sar][hPhe(3-Cl-4-CF3)][dNMeAbu][Ac5c][NMeChg][NMeD]-Piperidide; lactam N-11)	> 500	7.4
CC[C@H](C)[C@@H]1NC(=O)[C@H](CC(C)C)N(C)C(=O)C[C@@H](C)N(C)C(=O)[C@H](C2CCCCC2)NC(=O)C(C)(C)N(C)C(=O)[C@H](CC(C)C)NC(=O)[C@H](CCc2ccc(C(F)(F)F)c(F)c2)NC(=O)CN(C)C(=O)[C@H](Cc2ccc(Cl)cc2)N(C)C(=O)CN(C)C(=O)CN(C)C1=O [Compound 897] (cyclo([Chg][NMedβ3hAla][NMeL]I[Sar][Sar][NMePhe(4-Cl)][Sar][hPhe(3-F,4-CF3)]L[NMeAib]))	> 500	150
CC[C@H](C)[C@@H]1NC(=O)[C@H](C)N(C)C(=O)C[C@@H](C(=O)N2CCCCC2)N(C)C(=O)[C@H](C(C)C)N(C)C(=O)C2(CCCC2)NC(=O)[C@@H]2CCCN2C(=O)[C@H](CCc2ccc(C(F)(F)F)c(Cl)c2)NC(=O)[C@@H](C)N(C)C(=O)[C@H](CC2CCCCC2)N(C)C(=O)[C@@H]2CCN2C(=O)CN(C)C1=O [Compound 115] ([NMeA]I[Sar][Aze][NMeCha][dNMeA][hPhe(3-Cl-4-CF3)]P[Ac5c][NMeV][NMeD]-Piperidide; lactam N-11)	> 500	6
CC[C@H](C)[C@@H]1NC(=O)[C@H](CC(C)C)N(C)C(=O)C[C@@H](C(=O)N2CCCCC2)N(C)C(=O)[C@H](C2CCCCC2)N(C)C(=O)C2(CCCC2)NC(=O)[C@H](CC2CC2)N(C)C(=O)[C@H](CCc2ccc(C(F)(F)F)c(Cl)c2)NC(=O)CN(C)C(=O)[C@H](CC2CCCCC2)N(C)C(=O)CN(C)C(=O)CN(C)C1=O [Compound 200] ([NMeL]I[Sar][Sar][NMeCha][Sar][hPhe(3-Cl-4-CF3)][NMeAla(cPr)][Ac5c][NMeChg][NMeD]-Piperidide; lactam N-11)	> 500	13
CC[C@H](C)[C@@H]1NC(=O)[C@H](CC(C)C)N(C)C(=O)C[C@@H](C)NC(=O)[C@H](C2CCCCC2)N(C)C(=O)C2(CCCC2)NC(=O)[C@@H]2CCCN2C(=O)[C@H](CCc2ccc(C(F)(F)F)c(Cl)c2)NC(=O)CN(C)C(=O)[C@H](CC2CCCCC2)N(C)C(=O)[C@@H]2CCN2C(=O)[C@H](C)N(C)C1=O [Compound 1706] (cyclo([Ac5c][NMeChg][d(β3hA)][NMeL]I[NMeA][Aze][NMeCha][Sar][hPhe(3-Cl-4-CF3)]P))	> 500	140
CC[C@H](C)[C@@H]1NC(=O)[C@H](CC(C)C)N(C)C(=O)C[C@@H](C)NC(=O)[C@H](C2CCCC2)N(C)C(=O)C2(CCCC2)NC(=O)[C@@H]2CCCN2C(=O)[C@H](CCc2ccc(C(F)(F)F)c(Cl)c2)NC(=O)CN(C)C(=O)[C@H](C)N(C)C(=O)[C@@H]2CCN2C(=O)[C@H](C)N(C)C1=O [Compound 1300] (cyclo([Ac5c][NMeGly(cPent)][d(β3hA)][NMeL]I[NMeA][Aze][NMeA][Sar][hPhe(3-Cl-4-CF3)]P))	> 500	94
CC[C@H](C)[C@@H]1NC(=O)[C@H](CC(C)C)N(C)C(=O)C[C@@H](C(=O)N2CCCC2)N(C)C(=O)[C@H]([C@@H](C)CC)N(C)C(=O)C2(CCCC2)NC(=O)[C@@H]2CC(F)(F)CN2C(=O)[C@H](CCc2ccc(C(F)(F)F)c(Cl)c2)NC(=O)CN(C)C(=O)[C@H](Cc2ccc(C(F)(F)F)cc2)N(C)C(=O)[C@@H]2CCN2C(=O)[C@H](C)N(C)C1=O [Compound 1242] ([NMeL]I[NMeA][Aze][NMePhe(4-CF3)][Sar][hPhe(3-Cl-4-CF3)][Pro(4,4-F2)][Ac5c][NMeI][NMeD]-Pyrrolidide; lactam N-11)	≤ 20	0.52
CCCCC[C@H]1C(=O)N[C@@H]([C@@H](C)CC)C(=O)N(C)[C@@H](C)C(=O)N2CC[C@H]2C(=O)N(C)[C@@H](Cc2ccc(C(F)(F)F)cc2)C(=O)N(C)CC(=O)N[C@@H](CCc2ccc(C(F)(F)F)c(Cl)c2)C(=O)N2CCC[C@H]2C(=O)NC2(CCCC2)C(=O)N(C)[C@@H]([C@@H](C)CC)C(=O)N(C)[C@H](C(=O)N2CCCC2)CC(=O)N1C [Compound 509] ([NMeAhp(2)]I[NMeA][Aze][NMePhe(4-CF3)][Sar][hPhe(3-Cl-4-CF3)]P[Ac5c][NMeI][NMeD]-Pyrrolidide; lactam N-11)	≤ 20	1.3
CC[C@H](C)[C@@H]1NC(=O)[C@H](CC(C)C)N(C)C(=O)C[C@@H](C(=O)N2CCOCC2)N(C)C(=O)[C@H]([C@@H](C)CC)N(C)C(=O)C2(CCCC2)NC(=O)[C@@H]2CCCN2C(=O)[C@H](CCc2cc(F)c(C(F)(F)F)c(F)c2)NC(=O)CN(C)C(=O)[C@H](Cc2ccc(C)cc2)N(CC)C(=O)[C@@H]2CCN2C(=O)[C@H](C)N(C)C1=O [Compound 1209] ([NMeL]I[NMeA][Aze][NEtPhe(4-Me)][Sar][hPhe(3,5-F2-4-CF3)]P[Ac5c][NMeI][NMeD]-Morpholide; lactam N-11)	≤ 20	0.85
CC[C@H](C)[C@@H]1NC(=O)[C@H](CC(C)C)N(C)C(=O)C[C@@H](C(=O)N2CCOC2)NC(=O)[C@H](C(C)C)N(C)C(=O)C2(CCCC2)NC(=O)[C@@H]2CCCN2C(=O)[C@H](CCc2ccc(C(F)(F)F)c(Cl)c2)NC(=O)CN(C)C(=O)[C@H](CC2CCCCC2)N(C)C(=O)[C@@H]2CCN2C(=O)[C@H](C)N(C)C1=O [Compound 1188] ([NMeL]I[NMeA][Aze][NMeCha][Sar][hPhe(3-Cl-4-CF3)]P[Ac5c][NMeV]D-{Oxazolidin(3-yl)}; lactam N-11)	> 500	33
CCO[C@@H]1C[C@H]2C(=O)NC3(CCCC3)C(=O)N(C)[C@@H](C3CCCC3)C(=O)N(C)[C@H](C(=O)N(C)C)CC(=O)N(C)[C@@H](CC(C)C)C(=O)N[C@@H]([C@@H](C)CC)C(=O)N(C)[C@@H](C)C(=O)N3CC[C@H]3C(=O)N(C)[C@@H](CC3CCCCC3)C(=O)N(C)CC(=O)N[C@@H](CCc3ccc(C(F)(F)F)c(F)c3)C(=O)N2C1 [Compound 1231] ([NMeL]I[NMeA][Aze][NMeCha][Sar][hPhe(3-F,4-CF3)][Hyp](Et)[Ac5c][NMeGly(cPent)][NMeD]-NMe2; lactam N-11)	≤ 20	0.59
CC[C@H](C)[C@@H]1NC(=O)[C@H](C)N(C)C(=O)C[C@@H](C(=O)N2CCCCC2)N(C)C(=O)[C@H](C(C)C)N(C)C(=O)C2(CCCC2)NC(=O)[C@H](Cc2ccccc2)NC(=O)[C@H](CCc2ccc(C(F)(F)F)c(Cl)c2)NC(=O)CN(C)C(=O)[C@H](CC2CCCCC2)N(C)C(=O)CN(C)C(=O)CN(C)C1=O [Compound 1125] ([NMeA]I[Sar][Sar][NMeCha][Sar][hPhe(3-Cl-4-CF3)]F[Ac5c][NMeV][NMeD]-Piperidide; lactam N-11)	> 500	2.5
CC[C@H](C)[C@@H]1NC(=O)[C@H](CO)N(C)C(=O)C[C@@H](C(=O)N2CCCCC2)N(C)C(=O)[C@H](C(C)C)N(C)C(=O)C2(CCCC2)NC(=O)[C@@H]2CCCN2C(=O)[C@H](CCc2ccc(C(F)(F)F)c(Cl)c2)NC(=O)CN(C)C(=O)[C@H](CC2CCCCC2)N(C)C(=O)[C@@H]2CCN2C(=O)[C@H](C)N(C)C1=O [Compound 1837] ([NMeS]I[NMeA][Aze][NMeCha][Sar][hPhe(3-Cl-4-CF3)]P[Ac5c][NMeV][NMeD]-Piperidide; lactam N-11)	> 500	2

— patent US20240148821A1, “PHARMACEUTICAL USE OF CYCLIC PEPTIDE COMPOUND” (CHUGAI SEIYAKU KABUSHIKI KAISHA, priority 2021, published 2024)
